The source made the active and inactive calls. The calls are words filed in the database; no cut-off is given here.
How the values were obtained:
[1] = molecular target: Dual specificity mitogen-activated protein kinase kinase 1 (Mus musculus) (UniProt P31938); assay: Inhibition of MEK1 in mouse lung fibroblast assessed as reduction in pErk1/2 level at 10 uM after 1 hr by Western blotting analysis
PANC-1 [2] = assay: Inhibition of PI3K in human PANC1 cells assessed as reduction in pAkt level at 10 uM after 1 hr by Western blotting analysis; type: cell-based
Mus musculus [3] = organism: Mus musculus; assay: Inhibition of PI3K in mouse lung fibroblast assessed as reduction in pAkt level at 10 uM after 1 hr by Western blotting analysis
A549 [4] = assay: Inhibition of PI3K in human A549 cells assessed as reduction in pAkt level at 10 uM after 1 hr by Western blotting analysis; type: cell-based
A549 [5] = assay: Inhibition of PI3K in human A549 cells assessed as reduction in pAkt level after 1 hr by Western blotting analysis; type: cell-based
A549 [6] = assay: Cytotoxicity against human A549 cells at 10 to 25 uM after 24 hrs by Alamar Blue assay; type: functional
[7] = molecular target: T1, Dual specificity mitogen-activated protein kinase kinase 1 (Homo sapiens, UniProt Q02750); assay: Inhibition of MEK1 in human A549 cells assessed as reduction in pErk1/2 level at 25 uM after 1 hr by Western blotting analysis; type: cell-based
T1 sequence (Q02750 whole entry): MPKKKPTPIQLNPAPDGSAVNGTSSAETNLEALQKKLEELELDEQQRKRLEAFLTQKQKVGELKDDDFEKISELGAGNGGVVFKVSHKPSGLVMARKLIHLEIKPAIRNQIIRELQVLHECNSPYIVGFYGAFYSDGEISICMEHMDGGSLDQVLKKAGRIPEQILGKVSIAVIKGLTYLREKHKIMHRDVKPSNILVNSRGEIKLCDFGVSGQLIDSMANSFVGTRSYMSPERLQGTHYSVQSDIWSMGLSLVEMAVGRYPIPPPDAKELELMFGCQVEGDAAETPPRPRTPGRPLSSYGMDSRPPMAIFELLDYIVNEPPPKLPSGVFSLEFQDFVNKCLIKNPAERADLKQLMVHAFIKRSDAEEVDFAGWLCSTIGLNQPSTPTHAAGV

[8] = molecular target: Dual specificity mitogen-activated protein kinase kinase 1 (Mus musculus) (UniProt P31938); assay: Inhibition of MEK1 in mouse lung fibroblast assessed as reduction in pErk1/2 level after 1 hr by Western blotting analysis
[9] = molecular target: T1, Dual specificity mitogen-activated protein kinase kinase 1; assay: Inhibition of MEK1 in human A549 cells assessed as reduction in pErk1/2 level after 1 hr by Western blotting analysis; type: cell-based
Mus musculus [10] = organism: Mus musculus; assay: Inhibition of PI3K in mouse lung fibroblast assessed as reduction in pAkt level at 25 uM after 1 hr by Western blotting analysis
[11] = molecular target: T1, Dual specificity mitogen-activated protein kinase kinase 1; assay: Inhibition of MEK1 in human PANC1 cells assessed as reduction in pErk1/2 level after 1 hr by Western blotting analysis; type: cell-based; details: PANC-1
[12] = molecular target: Dual specificity mitogen-activated protein kinase kinase 1 (Mus musculus) (UniProt P31938); assay: Inhibition of MEK1 in mouse lung fibroblast assessed as reduction in pErk1/2 level at 25 uM after 1 hr by Western blotting analysis
[13] = molecular target: Protein kinase C alpha type (Homo sapiens, UniProt P17252); assay: Inhibition of PKC-alpha (unknown origin)
[14] = molecular target: Epidermal growth factor receptor (Homo sapiens, UniProt P00533); assay: Inhibition of EGFR (unknown origin)
Sequence of Epidermal growth factor receptor (P00533 whole entry): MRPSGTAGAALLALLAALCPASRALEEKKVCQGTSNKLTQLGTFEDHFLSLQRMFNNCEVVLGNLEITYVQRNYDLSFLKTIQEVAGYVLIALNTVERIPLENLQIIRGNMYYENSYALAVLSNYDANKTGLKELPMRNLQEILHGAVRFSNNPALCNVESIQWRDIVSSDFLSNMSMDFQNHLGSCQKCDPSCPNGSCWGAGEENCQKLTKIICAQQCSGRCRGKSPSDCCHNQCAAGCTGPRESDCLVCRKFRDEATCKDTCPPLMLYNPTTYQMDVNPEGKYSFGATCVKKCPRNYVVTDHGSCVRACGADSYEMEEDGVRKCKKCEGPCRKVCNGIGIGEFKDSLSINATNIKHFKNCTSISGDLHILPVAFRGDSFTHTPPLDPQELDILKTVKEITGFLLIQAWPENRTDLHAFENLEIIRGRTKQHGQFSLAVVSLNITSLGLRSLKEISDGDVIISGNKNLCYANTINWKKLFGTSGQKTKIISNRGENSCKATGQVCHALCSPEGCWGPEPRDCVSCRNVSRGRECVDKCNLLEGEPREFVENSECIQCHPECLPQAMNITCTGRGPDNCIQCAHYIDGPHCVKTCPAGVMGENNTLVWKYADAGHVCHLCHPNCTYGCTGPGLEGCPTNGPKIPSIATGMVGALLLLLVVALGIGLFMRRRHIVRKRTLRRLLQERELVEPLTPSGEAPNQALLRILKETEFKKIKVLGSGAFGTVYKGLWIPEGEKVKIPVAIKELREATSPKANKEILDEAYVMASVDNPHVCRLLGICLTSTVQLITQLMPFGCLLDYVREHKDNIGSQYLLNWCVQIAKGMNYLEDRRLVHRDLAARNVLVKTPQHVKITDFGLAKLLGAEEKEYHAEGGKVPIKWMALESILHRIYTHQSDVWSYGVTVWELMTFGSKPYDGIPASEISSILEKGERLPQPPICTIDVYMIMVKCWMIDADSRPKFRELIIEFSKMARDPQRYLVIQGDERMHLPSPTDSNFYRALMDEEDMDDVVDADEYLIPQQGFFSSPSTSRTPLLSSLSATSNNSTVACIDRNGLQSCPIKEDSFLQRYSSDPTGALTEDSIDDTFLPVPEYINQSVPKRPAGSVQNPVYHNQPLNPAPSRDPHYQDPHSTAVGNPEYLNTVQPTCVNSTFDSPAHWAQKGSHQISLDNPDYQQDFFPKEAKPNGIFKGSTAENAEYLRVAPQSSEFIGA

[15] = Cytotoxicity against mouse lung fibroblast at 10 to 25 uM after 24 hrs by Alamar Blue assay; type: cell-based
Mus musculus [16] = organism: Mus musculus; assay: Inhibition of PI3K in mouse lung fibroblast assessed as reduction in pAkt level after 1 hr by Western blotting analysis
A549 [17] = assay: Inhibition of PI3K in human A549 cells assessed as reduction in pAkt level at 25 uM after 1 hr by Western blotting analysis; type: cell-based
PANC-1 [18] = assay: Inhibition of PI3K in human PANC1 cells assessed as reduction in pAkt level at 25 uM after 1 hr by Western blotting analysis; type: cell-based
[19] = Cytotoxicity against human PANC1 cells at 10 to 25 uM after 24 hrs by Alamar Blue assay; type: functional, PANC-1
[20] = Inhibition of ERK (unknown origin); design: species or system Homo sapiens
[21] = Inhibition of PI3K (unknown origin) by TR-FRET assay; design: species or system Homo sapiens
PANC-1 [22] = assay: Inhibition of PI3K in human PANC1 cells assessed as reduction in pAkt level after 1 hr by Western blotting analysis; type: cell-based
Aurora kinase B = Aurora kinase B (Homo sapiens, UniProt Q96GD4); assay: Inhibition of AurB (unknown origin)
Sequence of Aurora kinase B (Q96GD4 whole entry): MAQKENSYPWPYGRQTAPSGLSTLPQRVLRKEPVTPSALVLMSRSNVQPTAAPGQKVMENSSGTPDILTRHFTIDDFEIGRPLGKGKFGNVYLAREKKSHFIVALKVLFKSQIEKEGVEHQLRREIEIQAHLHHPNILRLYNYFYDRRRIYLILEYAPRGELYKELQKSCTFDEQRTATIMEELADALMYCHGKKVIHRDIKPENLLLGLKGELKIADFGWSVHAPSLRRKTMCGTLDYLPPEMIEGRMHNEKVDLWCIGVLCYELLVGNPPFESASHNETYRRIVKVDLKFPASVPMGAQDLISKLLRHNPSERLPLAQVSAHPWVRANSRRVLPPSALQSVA

[23] = molecular target: T1, Dual specificity mitogen-activated protein kinase kinase 1; assay: Inhibition of MEK1 in human PANC1 cells assessed as reduction in pErk1/2 level at 25 uM after 1 hr by Western blotting analysis; type: cell-based; details: PANC-1

Sequence of Dual specificity mitogen-activated protein kinase kinase 1 (Mus musculus) (P31938 whole entry): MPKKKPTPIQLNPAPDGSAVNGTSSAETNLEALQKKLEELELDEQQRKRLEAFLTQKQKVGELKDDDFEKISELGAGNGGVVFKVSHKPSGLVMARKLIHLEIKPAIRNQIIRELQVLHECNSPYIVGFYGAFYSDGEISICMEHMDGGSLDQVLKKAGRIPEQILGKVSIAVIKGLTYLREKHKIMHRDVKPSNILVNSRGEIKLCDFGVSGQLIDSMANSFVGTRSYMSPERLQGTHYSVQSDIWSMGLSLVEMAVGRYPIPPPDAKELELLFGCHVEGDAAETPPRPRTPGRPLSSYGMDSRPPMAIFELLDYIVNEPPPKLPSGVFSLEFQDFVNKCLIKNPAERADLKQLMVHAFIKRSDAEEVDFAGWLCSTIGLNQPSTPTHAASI

## O=C(NOC[C@H](O)CO)c1ccc(F)c(F)c1Nc1ccc(I)cc1F
[1]
  inhibition: Active
PANC-1 [2]
  inhibition: inactive
Mus musculus [3]
  inhibition: inactive
A549 [4]
  inhibition: inactive

## Cc1c(Cc2cccc(N(C)S(=O)(=O)CCCNCCCCCC(=O)N3CCN(c4nc(N5CCOCC5)nc(-n5c(C(F)F)nc6ccccc65)n4)CC3)c2)c(=O)oc2cc(OC(=O)N(C)C)ccc12
A549 [5]
  inhibition: Dose-dependent effect
A549 [6]
  Activity: 50%
[7]
  inhibition: Active
[8]
  inhibition: Dose-dependent effect
[9]
  inhibition: Dose-dependent effect
Mus musculus [10]
  inhibition: Active
[11]
  inhibition: Dose-dependent effect
[12]
  inhibition: Active
[13]
  IC50: > 10 µM
[14]
  IC50: > 10 µM
[15]
  Activity: Non-toxic
Mus musculus [16]
  inhibition: Dose-dependent effect
A549 [17]
  inhibition: Active
PANC-1 [18]
  inhibition: Active
[19]
  Activity: 50%
[20]
  IC50: > 10 µM
[21]
  IC50: 0.172 µM
PANC-1 [22]
  inhibition: Dose-dependent effect
Aurora kinase B
  IC50: > 10 µM
[23]
  inhibition: Active

## CNS(=O)(=O)Nc1nccc(Cc2c(C)c3ccc(Oc4ncccn4)cc3oc2=O)c1F
[1]
  inhibition: Active
PANC-1 [2]
  inhibition: inactive
Mus musculus [3]
  inhibition: inactive
A549 [4]
  inhibition: inactive

## FC(F)c1nc2ccccc2n1-c1nc(N2CCOCC2)nc(N2CCOCC2)n1
[1]
  inhibition: inactive
PANC-1 [2]
  inhibition: Active
Mus musculus [3]
  inhibition: Active
A549 [4]
  inhibition: Active

## O=C(CCCCC[N+](=O)[O-])N1CCN(c2nc(N3CCOCC3)nc(-n3c(C(F)F)nc4ccccc43)n2)CC1
[21]
  IC50: > 1 µM

## NCCCCCC(=O)N1CCN(c2nc(N3CCOCC3)nc(-n3c(C(F)F)nc4ccccc43)n2)CC1
[21]
  IC50: < 0.1 µM

— ChEMBL document CHEMBL3399976, “Dual inhibition of allosteric mitogen-activated protein kinase (MEK) and phosphatidylinositol 3-kinase (PI3K) oncogenic targets with a bifunctional inhibitor” (Bioorg Med Chem, 2015)
